{"source": "patent US9624266B2", "about": "“Brachiatin D and process for production thereof” (COUNCIL OF SCIENTIFIC & INDUSTRIAL RESEARCH, priority 2013, dated 2017)", "key": {"[1]": {"test_system": "A-549", "assay": "cells", "assay_type": "cell-based, human", "settings": "for % growth inhibition: A-549, 20 μM, 20 µM; for % age growth inhibition: A-549, 10 μM, 10 µM", "procedure": "(§1) For Cytotoxic assay, the MTT assay is useful for measuring the effect of a wide range of compounds on the in vitro growth of either normal or cancer cell lines. The assay was set up in a 96-well, flat-bottomed polystyrene microtiter plate. 3-5000 cancer cells were suspended per well in appropriate growth medium, and the cells were added in duplicate wells (triplicates were preferred). It was preferable to add the cells to the required number of wells in the plate prior to adding the peptaibol. After the cells were added to the plate, it was placed on an incubator for overnight incubation. After overnight incubation, the peptaibol was added at defined concentrations of 10, 20 and 50 μM to each set of duplicate wells and incubated for 48 hrs in CO2 incubator. The peptaibol was dissolved in dimethyl sulfoxide (DMSO) for the final addition. After 48 hr incubation, the MTT stock solution (2.5 μg/ml) was diluted with an equal volume of tissue culture medium and 20 μl of this solution was added directly to each well with a multichannel pipette. The plates were returned to the incubator for a period of at least 4 h. After 4 hr incubation, the plates were centrifuged at 1000 rpm for 10 min at ambient temperature, followed by inversion of the plates and blotting of excess medium. 150 μl of working DMSO was added to solubilize the MTT formazan product. A standard micro plate reader with adjustable wavelength across the visible spectrum was used. The OD values at 570 nm obtained for each set of triplicates corresponding to a specific concentration of a peptaibol was then transferred into a spreadsheet program.\n(§2) Cytotoxicity assay was performed on a panel of cancer cell lines using fraction 4 (HF-4) as a test material. In order to determine their effect on cell proliferation, A-549 (lung cell line), HEP-2 (liver cell line), MCF-7 (breast cell line), monkey normal cell line (CV-1), OVCAR-5 (ovary cell line) and THP-1 (leukemia cell line) were treated at indicated concentration of 50 μM for 48 h. […] 5-flurouracil and adriyamycin were used as the positive controls; 5-flurouracil inhibited the growth of lung and leukemia cancer cell lines upto 75% and 83% respectively. Moreover adriyamycin used at 1 μM could inhibit the proliferation of MCF-7 cells upto 73%.\n(§3) Cytotoxicity assay based on MTT was performed on a panel of cancer cell lines using brachiatin D as a test material. […] 5-flurouracil and adriyamycin were used as the positive controls; 5-flurouracil inhibited the growth of lung and leukemia cancer cell lines upto 73%, […] 88% respectively. Adriyamycin used at 1 μM could inhibit the proliferation of MCF-7 cells upto 77%."}, "[2]": {"test_system": "THP-1", "assay": "cells", "assay_type": "cell-based, human", "settings": "for % growth inhibition: THP-1, 20 μM, 20 µM", "procedure": "as §1, §2, §3"}, "[3]": {"test_system": "HOP-62", "assay": "MTT cytotoxicity assay, HOP-62 lung cell line", "assay_type": "cell-based, human", "procedure": "as §1, §3"}, "[4]": {"test_system": "MCF-7", "assay": "MTT cytotoxicity assay, MCF-7 breast cell line", "assay_type": "cell-based, human", "settings": "for % growth inhibition: MCF-7, 1 μM", "procedure": "as §1\nCytotoxicity assay was performed on a panel of cancer cell lines using fraction 4 (HF-4) as a test material. In order to determine their effect on cell proliferation, A-549 (lung cell line), HEP-2 (liver cell line), MCF-7 (breast cell line), monkey normal cell line (CV-1), OVCAR-5 (ovary cell line) and THP-1 (leukemia cell line) were treated at indicated concentration of 50 μM for 48 h. […]"}, "[5]": {"test_system": "MiaPaCa-2", "assay": "MTT cytotoxicity assay, MiaPaCa-2 pancreatic cell line", "assay_type": "cell-based, human", "settings": "MiaPaCa-2, 10 μM", "procedure": "as §1, with “150 μl of working DMSO was added to solubilize the MTT formazan product.” left out, “The OD values at 570 nm obtained for each set of triplicates corresponding to a specific concentration of a peptaibol was then transferred into a spreadsheet program.” left out"}, "[6]": {"test_system": "PC-3", "assay": "MTT cytotoxicity assay, PC-3 prostate cell line", "assay_type": "cell-based, human", "settings": "PC-3, 10 μM", "procedure": "as §1, with “150 μl of working DMSO was added to solubilize the MTT formazan product.” left out, “The OD values at 570 nm obtained for each set of triplicates corresponding to a specific concentration of a peptaibol was then transferred into a spreadsheet program.” left out"}, "[7]": {"test_system": "lymphocyte proliferation", "assay": "Lymphocyte proliferation assay (splenocytes, MTT)", "assay_type": "cell-based, mice", "settings": "concentration range 0.001 μM-10 μM", "text": "For Lymphocyte Proliferation Assay, the organic crude extract and then the purified peptaibol was taken for lymphocyte proliferation assay to check their activity by the following procedure. The mice spleen was collected from a live animal after sacrificing it under aseptic conditions in HBSS. The spleen was then minced using a pair of scissors and passed through a fine steel mesh to obtain a homogeneous cell suspension and the erythrocytes were lysed with ammonium chloride (0.8%, w/v). After centrifugation (380×g at 4° C. for 10 min), the pelleted cells were washed three times with PBS and resuspended in complete medium [RPMI 1640 supplemented with 12 mM HEPES (pH 7.1), 0.05 mM 2-mercaptoethanol, 100 IU/mL penicillin, 100 µg/mL streptomycin and 10% FCS]. The cell number was counted with a haemocytometer by the trypan blue dye exclusion technique. Cell viability exceeded 95%.\nSplenocytes (2×10^6 cells) were then seeded into a 96-well flat-bottom microtiter plate in 100 μl complete medium. Thereafter, variable doses of the test material along with LPS (1 μg/ml) to stimulate B cell proliferation were added giving a final volume of 200 μl. Test materials used in this assay were variable doses of the purified peptaibol (0.001, 0.01 and 0.1 μM). […] 200 μl of DMSO (192 μl DMSO with 8 μl IN HCl) was added to each well, and the absorbance was determined in an ELISA reader at 570 nm after 15 min. […]"}, "[8]": {"test_system": "TNF-α", "assay": "TNF-α in LPS stimulated cell culture supernatant (ELISA)", "assay_type": "cell-based, mouse", "settings": "LPS 1 μg/ml, 24 h, dose dependent, 0.001-0.1 dose range", "procedure": "(§4) For the estimation of pro-inflammatory cytokines (TNF-α, IL-1β and IL-6) in spleen cell culture supernatant, the splenocytes (2×10^6 cells) were seeded into a 96-well flat-bottom microtiter plate in 100 μl complete medium [RPMI 1640 supplemented with 12 mM HEPES (pH 7.1), 0.05 mM 2-mercaptoethanol, 100 IU/mL penicillin, 100 μg/mL streptomycin and 10% FCS]. Thereafter, variable does of purified peptaibol (brachiatin D) (0.001, 0.01 and 0.1 μM) were added giving a final volume of 200 μl. After subsequent stimulation with 1 μg/ml LPS for 24 h, the supernatants were harvested. The concentrations of TNF-α, IL-1β and IL-6 in culture supernatants were measured using mouse TNF-α, IL-1β and IL-6 ELISA kits (R&D Systems, USA), as per the instructions of the manufacturer\nas §4, with “For” for “For the”, “medium.” for “medium [RPMI 1640 supplemented with 12 mM HEPES (pH 7.1), 0.05 mM 2-mercaptoethanol, 100 IU/mL penicillin, 100 μg/mL streptomycin and 10% FCS].”, “brachiatin D” for “peptaibol (brachiatin D)”, “manufacturer. […]” for “manufacturer”"}, "[9]": {"test_system": "IL-6", "assay": "IL-6 in LPS stimulated cell culture supernatant (ELISA)", "assay_type": "cell-based, mouse", "settings": "LPS 1 μg/ml, 24 h", "procedure": "as §4\nas §4, with “For” for “For the”, “medium.” for “medium [RPMI 1640 supplemented with 12 mM HEPES (pH 7.1), 0.05 mM 2-mercaptoethanol, 100 IU/mL penicillin, 100 μg/mL streptomycin and 10% FCS].”, “brachiatin D” for “peptaibol (brachiatin D)”, “manufacturer. […]” for “manufacturer”"}, "[10]": {"test_system": "IL-1β", "assay": "IL-1β in LPS stimulated cell culture supernatant (ELISA)", "assay_type": "cell-based, mouse", "settings": "LPS 1 μg/ml, 24 h", "procedure": "as §4\nas §4, with “For” for “For the”, “medium.” for “medium [RPMI 1640 supplemented with 12 mM HEPES (pH 7.1), 0.05 mM 2-mercaptoethanol, 100 IU/mL penicillin, 100 μg/mL streptomycin and 10% FCS].”, “brachiatin D” for “peptaibol (brachiatin D)”, “manufacturer. […]” for “manufacturer”"}, "[11]": {"test_system": "NO", "assay": "Inhibition of nitric oxide (nitrite) in LPS treated macrophages", "assay_type": "cell-based, mouse", "procedure": "NO is a short-lived molecule. […] Large quantity of nitrite is produced by macrophage when stimulated with LPS. But when cells were treated with brachiatin D, it was observed that brachiatin D inhibited LPS stimulated production of nitrite (p<0.001 at 0.001 μM dose)."}}, "note": "Several values for one entry are separate records, joined by “and”; a condition that tells them apart may be missing. Identical values can stand only once. Non-standard residues stand in square brackets, D forms with d. Residues, ends and D or L forms follow the SMILES beside them. *: point of attachment. Aib = CC(C)(N)C(=O)O; X1 = CCC(C)C(CO)N*", "data": [{"smiles": "O=c1[nH]cc(F)c(=O)[nH]1", "note": "[5-Fluorouracil, reference compound]", "values": [{"measurement": "% growth inhibition", "setting": "[1]", "result": "75% and 73%"}, {"measurement": "inhibition at 20 µM", "setting": "[1]; Homo sapiens, A549, A-549, 20 μM, read-out: % growth inhibition", "result": "≤ 75", "unit": "%"}, {"measurement": "inhibition at 20 µM", "setting": "[2]; Homo sapiens, THP-1, THP-1, 20 μM, read-out: % growth inhibition", "result": "≤ 83", "unit": "%"}, {"measurement": "% growth inhibition", "setting": "[2]", "result": "83% and 88%"}, {"measurement": "% age growth inhibition", "setting": "[3]; HOP-62, 20 μM, 20 µM", "result": 81, "unit": "%"}, {"measurement": "inhibition at 20 µM", "setting": "[3]; Homo sapiens, HOP-62, HOP-62, 20 μM, read-out: % age growth inhibition", "result": "≤ 81", "unit": "%"}]}, {"smiles": "COc1cccc2c1C(=O)c1c(O)c3c(c(O)c1C2=O)C[C@@](O)(C(=O)CO)C[C@@H]3O[C@H]1C[C@H](N)[C@H](O)[C@H](C)O1", "note": "[Adriyamycin]", "values": [{"measurement": "% growth inhibition", "setting": "[4]", "result": 73, "unit": "%"}, {"measurement": "% growth inhibition", "setting": "[4]; 1 µM", "result": "≤ 73", "unit": "%"}]}, {"smiles": "CCC(C)C(CO)NC(=O)C1CCCN1C(=O)C(CC(C)C)NC(=O)C(CC(N)=O)NC(=O)C(C)(C)NC(=O)C1CCCN1C(=O)C(C)(C)NC(=O)C(CC(C)C)NC(=O)C(C)(C)NC(=O)C(CC(N)=O)NC(=O)C(C)(C)NC(C)=O", "note": "(stereo not drawn) [Brachiatin D, AcAib-Asn-Aib-Leu-Aib-Pro-Aib-Asn-Leu-Pro-Ileuol] (Ac-[Aib]N[Aib]L[Aib]P[Aib]NLP-X1; configuration not given here)", "values": [{"measurement": "% age growth inhibition", "setting": "[1]", "result": 63, "unit": "%"}, {"measurement": "% age growth inhibition", "setting": "[1]; listed as brachiatin D", "result": "≤ 63", "unit": "%"}, {"measurement": "% growth inhibition", "setting": "[1]", "result": 96, "unit": "%"}, {"measurement": "% growth inhibition", "setting": "[1]; listed as brachiatin D", "result": "> 95", "unit": "%"}, {"measurement": "% age growth inhibition", "setting": "[2]; THP-1, 10 μM", "result": 56, "unit": "%"}, {"measurement": "% growth inhibition", "setting": "[2]", "result": 77, "unit": "%"}, {"measurement": "% growth inhibition", "setting": "[2]; listed as brachiatin D", "result": "> 75", "unit": "%"}, {"measurement": "% age growth inhibition", "setting": "[4]; MCF-7, 10 μM", "result": 100, "unit": "%"}, {"measurement": "sensitivity of the cell line to cytotoxic effects", "setting": "[3]; HOP-62", "result": "much resistance"}, {"measurement": "% age growth inhibition", "setting": "[3]; HOP-62, 10 μM", "result": 21, "unit": "%"}, {"measurement": "% age growth inhibition", "setting": "[3]; HOP-62, 20 μM", "result": 35, "unit": "%"}, {"measurement": "% age growth inhibition", "setting": "[5]", "result": 100, "unit": "%"}, {"measurement": "% age growth inhibition", "setting": "[6]", "result": 100, "unit": "%"}, {"measurement": "activity against lymphocyte proliferation", "setting": "[7]", "result": "good activity"}, {"measurement": "inhibition of TNF-α production", "setting": "[8]", "result": "up to 42%"}, {"measurement": "effect on LPS induced IL-6", "setting": "[9]", "result": "inhibited"}, {"measurement": "effect on LPS induced IL-1β", "setting": "[10]", "result": "inhibited"}, {"measurement": "LPS stimulated production of nitrite", "setting": "[11]; 0.001 μM dose, p<0.001", "result": "inhibited"}, {"measurement": "NO production", "setting": "[11]; 0.1 μM, p<0.05", "result": "Marginal increase"}]}]}
